# In patent US20230067929A1, “HETEROCYCLIC DERIVATIVES, PHARMACEUTICAL COMPOSITIONS AND THEIR USE IN THE TREATMENT, AMELIORATION OR PREVENTION OF CANCER” (Tolremo Therapeutics AG, priority 2018, published 2023):
# pEC50: −log10 of the molar value.
# Tested on: A375 cells
# Experiment: A375 cell immunofluorescence assay (with 1 μM S1152 and 0.5 μM S1008), EC50
# Assay type: cell-based
# Details: 1 μM S1152 + 0.5 μM S1008, one day, ratio FL2/FL3 staining (sc-365823 antibody)
# Description: One thousand four hundred A375 cells were seeded in each well of a 384 well microplate. One day later they were treated with 1 μM S1152 (Selleckchem) in dimethyl sulfoxide, 0.5 μM S1008 (Selleckchem) and dose ranges of invention compounds for one day in Dulbecco's Modified Eagle's Medium supplemented with 10% fetal calf serum and 2 mM (2S)-2-amino-4-carbamoylbutanoic acid. Wells were incubated with 4% polyoxymethylene (Sigma Aldrich 158127) at ambient temperature. After ten minutes, polyoxymethylene was replaced with phosphate-buffered saline. After one minute phosphate-buffered saline was replaced with 0.2% polyethylene glycol octylphenyl ether in phosphate-buffered saline. After ten minutes at ambient temperature 0.2% polyethylene glycol octylphenyl ether in phosphate-buffered saline was replaced with 1% aminoethanoic acid in phosphate-buffered saline. […] After one hour at 37° C., the solution was replaced with phosphate-buffered saline twice. Phosphate-buffered saline was replaced with 2 μg/ml A-11029 (Invitrogen) in 0.05% polyoxyethylene (20) sorbitan monolaurate in phosphate-buffered saline. […] After one hour at ambient temperature in the dark, signal in wells was measured with a Acumen Cellista. 3,8-Diamino-5-[3-(diethylmethylammonio)propyl]-6-phenylphenanthridinium diiodide-positive objects were defined in FL3 (565-600 nm) with a perimeter between 50-800 μm and a total intensity of 10000-1000000 FLU. Signal in FL2 (500-530 nm) was measured in defined objects. A normalized ratio of total ln FL2 over total ln FL3 staining was log transformed. A non-linear regression (variable slope, 4 parameters) was used to calculate EC50 values using GraphPad Prism (Version 7.0d).
row,Compound,pEC50
1,CCC(=O)N1CCCC(c2nc(Nc3ccccc3)cc(-c3cccnc3)n2)C1 (centres unmarked),5.00 to 6.00
2,CC(=O)N1C[C@H](c2nc(Nc3cccc(F)c3)cc(-c3cccnc3)n2)CC[C@@H]1C(F)(F)F,> 6.00
3,CC(=O)N1CCCC(c2nc(Nc3cccc(F)c3)cc(-c3cncc4[nH]ccc34)n2)C1 (centres unmarked) [drawing 556],> 6.00
4,CC(=O)N1CCCC(c2nc(Nc3cccc(F)c3)cc(-c3cccnc3)n2)C1C (centres unmarked),< 5.00
5,CC(=O)N1CCCC(c2nc(Nc3cccc(F)c3)cc(-c3cccc4[nH]ccc34)n2)C1 (centres unmarked),> 6.00
6,CCC(=O)N1CCCC(c2nc(Nc3cccc(F)c3)cc(Nc3cnccn3)n2)C1 (centres unmarked),< 5.00
7,COc1cccc(Nc2cc(-c3cncc(OC)c3)nc(C3CCCN(C(C)=O)C3)n2)c1 (centres unmarked),5.00 to 6.00
8,CCC(=O)N1CCCC(c2nc(NCc3ccccc3)cc(-c3cccnc3)n2)C1 (centres unmarked),< 5.00
9,CC(=O)NCCOCCOCCOc1cncc(-c2cc(Nc3cccc(F)c3)nc(C3CCCN(C(C)=O)C3)n2)c1 (centres unmarked),5.00 to 6.00
10,CCC(=O)N1CCCC(c2nc(Nc3cccc(F)c3)cc(C3=CCCC3)n2)C1 (centres unmarked),< 5.00
11,CC(=O)N1CCCC(c2nc(Nc3cccc(F)c3)cc(-c3cncc(C4COC4)c3)n2)C1 (centres unmarked),> 6.00
12,CCC(=O)N1CCCC(c2nc(Nc3ccc(Cl)cc3)cc(-c3cccnc3)n2)C1 (centres unmarked),5.00 to 6.00
13,CN1CCCC(c2nc(Nc3cccc(F)c3)cc(-c3cccnc3)n2)C1 (centres unmarked),< 5.00
14,C#Cc1cc(Nc2cccc(F)c2)nc(C2CCCN(C(C)=O)C2)n1 (centres unmarked),< 5.00
15,CCC(=O)N1CCCC(c2nc(Nc3ccccc3Cl)cc(-c3cccnc3)n2)C1 (centres unmarked),5.00 to 6.00
16,CC(=O)N1CCCC(Nc2cc(Nc3cccc(F)c3)nc(C3CCCN(C(C)=O)C3)n2)C1 (centres unmarked),< 5.00
17,CCC(=O)N1CCCC(c2nc(NC)cc(-c3cccnc3)n2)C1 (centres unmarked),< 5.00
18,CCC(=O)N1CCCC(c2nc(Cl)cc(Nc3ccccc3F)n2)C1 (centres unmarked),< 5.00
19,CC(=O)N1CCCC(c2nc(Nc3cccc(F)c3)c(C)c(-c3cccnc3)n2)C1 (centres unmarked),< 5.00
20,CC(=O)N1CCCC(c2cc(Nc3cccc(F)c3)cc(-c3cncnc3)n2)C1 (centres unmarked),5.00 to 6.00
21,CC(=O)N1C[C@H](c2nc(Nc3cccnc3)cc(-c3cccnc3)n2)CC[C@@H]1C,> 6.00
22,CC(F)(F)C(=O)N1CCCC(c2nc(Nc3cccc(F)c3)cc(-c3cccnc3)n2)C1 (centres unmarked),< 5.00
23,CCC(=O)N1CCCC(c2nc(Nc3cccc(F)c3)cc(-c3cncc(OC)c3)n2)C1 (centres unmarked),5.00 to 6.00
24,CNC(=O)c1ccc(-c2cc(Nc3cccc(F)c3)nc(C3CCCN(C(C)=O)C3)n2)cc1 (centres unmarked),5.00 to 6.00

row,Compound,pEC50
1,CC(=O)N1CCCC(c2nc(Nc3ccccc3)cc(-c3cncnc3)n2)C1 (centres unmarked),5.00 to 6.00
2,CC(=O)N1CCCC(c2nc(Nc3cccc(F)c3)cc(-c3cncc(C(F)F)c3)n2)C1 (centres unmarked),> 6.00
3,CC(=O)N1CCCC(c2nc(Nc3cccc(F)c3)cc(-c3ccccc3)n2)C1 (centres unmarked),5.00 to 6.00
4,CCC(=O)N1CCCC(c2nc(Nc3cccc(F)c3)cc(C3CCCCC3)n2)C1 (centres unmarked),< 5.00
5,CC(=O)N1CCCC(c2nc(Nc3cccc(F)c3)cc(-c3cncc(C(=O)O)c3)n2)C1 (centres unmarked),< 5.00
6,CC(=O)N1CCCC(c2nc(Nc3ncccn3)cc(-c3cccnc3)n2)C1 (centres unmarked),< 5.00
7,CN1CC(c2nc(Nc3cccc(F)c3)cc(-c3cccnc3)n2)CC1=O (centres unmarked),< 5.00
8,CCC(=O)N1CCCC(c2nc(Nc3cccc(F)c3)cc(-c3cnc(N)nc3)n2)C1 (centres unmarked),< 5.00
9,CC(=O)N1CCN(c2cncc(-c3cc(Nc4cccc(F)c4)nc(C4CCCN(C(C)=O)C4)n3)c2)CC1 (centres unmarked),5.00 to 6.00
10,CC(=O)N1CC(O)CC(c2nc(Nc3cccc(F)c3)cc(-c3cccnc3)n2)C1 (centres unmarked),5.00 to 6.00
11,CC(=O)N1CCCC(c2nc(Nc3cccc(C)c3)cc(-c3cncc(C)c3)n2)C1 (centres unmarked),> 6.00
12,CCC(=O)N1CCCC(c2nc(-c3cccnc3)cc(N3CCOCC3)n2)C1 (centres unmarked),< 5.00
13,CC(=O)N1CCCC(c2nc(Nc3cccc(C)c3)cc(-c3c(C)noc3C)n2)C1 (centres unmarked),5.00 to 6.00
14,CCC(=O)N1CCCC(c2nc(Nc3cccc(F)c3)cc(-c3ccc(C(F)(F)F)nc3)n2)C1 (centres unmarked),5.00 to 6.00
15,CC(=O)N1CCCC(c2nc(Nc3cccc(F)c3)cc(-c3cncnc3)n2)C1 (centres unmarked),5.00 to 6.00
16,CC(=O)N1CCCC(c2nc(Nc3cncc(C)c3)cc(-c3cncnc3)n2)C1 (centres unmarked),5.00 to 6.00
17,CC(=O)N1CCCC(c2cc(Nc3cccc(F)c3)nc(-c3cccnc3)n2)C1 (centres unmarked),5.00 to 6.00
18,CCC(=O)N1CCCC(c2nc(Nc3cccc(F)c3)cc(-c3cncc(F)c3)n2)C1 (centres unmarked),< 5.00
19,CC(=O)N1CCCC(c2nc(Nc3cccc(F)c3)cc(-c3ncc(C)o3)n2)C1 (centres unmarked),< 5.00
20,COc1cncc(-c2cc(Cc3cccc(F)c3)nc(C3CCCN(C(C)=O)C3)n2)c1 (centres unmarked),< 5.00
21,CC(=O)N1CCCC(c2nc(Nc3cccc(F)c3)cc(-c3cncc4[nH]ccc34)n2)C1 (centres unmarked) [drawing 575],5.00 to 6.00
22,COC(=O)N1CCOCC(c2nc(Nc3cccc(F)c3)cc(-c3cccnc3)n2)C1 (centres unmarked),5.00 to 6.00
23,CCC(=O)N1CCCC(c2nc(Cc3cccc(F)c3)cc(-c3cccnc3)n2)C1 (centres unmarked),< 5.00
24,O=C1CCCC2C(c3nc(Nc4cccc(F)c4)cc(-c4cccnc4)n3)CCCN12 (centres unmarked),5.00 to 6.00

row,Compound,pEC50
1,CCC(=O)N1CCCC(c2nc(Nc3cccc(F)c3)cc(-c3ccccn3)n2)C1 (centres unmarked),< 5.00
2,CCC(=O)N1CCCC(c2nc(Nc3cccc(F)c3)cc(NC3CCCCC3)n2)C1 (centres unmarked),< 5.00
3,COc1csc(-c2cc(Nc3cccc(F)c3)cc(C3CCCN(C(C)=O)C3)n2)c1 (centres unmarked),5.00 to 6.00
4,CCC(=O)N1CCCC(c2nc(Nc3cccc(F)c3)cc(-c3cncc(C)c3)n2)C1 (centres unmarked),5.00 to 6.00
5,COc1cncc(-c2cc(Nc3ccccc3)nc(C3CCCN(C(C)=O)C3)n2)c1 (centres unmarked),> 6.00
6,CC(=O)Nc1ccc(-c2cc(Nc3cccc(F)c3)nc(C3CCCN(C(C)=O)C3)n2)cn1 (centres unmarked),5.00 to 6.00
7,CCC(=O)N1CCCC(c2nc(Nc3cccc(F)c3)cc(-c3cncc4[nH]ccc34)n2)C1 (centres unmarked),< 5.00
8,CC(=O)N1CCCC(c2nc(Nc3nc(C)co3)cc(-c3cccnc3)n2)C1 (centres unmarked),< 5.00
9,CCC(=O)N1CCCC(c2nc(Nc3cccc(F)c3)cc(C3=CCOCC3)n2)C1 (centres unmarked),< 5.00
10,CCC(=O)N1CCCC(c2nc(Nc3cccc(F)c3)cc(-c3cccnc3)n2)C1 (centres unmarked),5.00 to 6.00
11,CC(=O)N1CCCC(c2nc(Nc3cccc(F)c3)cc(-c3cc(C)cs3)n2)C1 (centres unmarked),> 6.00
12,CC(=O)N1CCCC(c2nc(Nc3cccc(F)c3)cc(-c3ccc(C)nc3C)n2)C1 (centres unmarked),5.00 to 6.00
13,CC(=O)N1CC(c2nc(Nc3cccc(F)c3)cc(-c3cccnc3)n2)CC(F)(F)C1 (centres unmarked),< 5.00
14,CC(=O)N1CCCC(c2nc(Nc3cccc(F)c3)cc(-c3cncc(N4CCNCC4)c3)n2)C1 (centres unmarked),< 5.00
15,[2H]C([2H])([2H])C(=O)N1CCCC(c2nc(Nc3cccc(F)c3)cc(-c3cccnc3)n2)C1 (centres unmarked),> 6.00
16,CC(=O)N1C[C@H](c2nc(Nc3cncc(C)c3)cc(-c3cncc(C4COC4)c3)n2)CC[C@@H]1C,> 6.00
17,CCC(=O)N1CCCC(c2nc(Nc3cccc(F)c3)cc(-c3ncccn3)n2)C1 (centres unmarked),< 5.00
18,CCC(=O)N1CCCC(c2nc(Nc3cccc(F)c3)cc(-c3ccc(C(=O)NC)cc3)n2)C1 (centres unmarked),5.00 to 6.00
19,CCC(=O)N1CCCC(c2nc(Nc3cccc(F)c3)cc(-c3ccc(NC(C)=O)cc3)n2)C1 (centres unmarked),5.00 to 6.00
20,CC(=O)N1CCCC(c2nc(Nc3cccc(F)c3)cc(-c3cncc(C(=O)N4CCS(=O)(=O)CC4)c3)n2)C1 (centres unmarked),< 5.00
21,CCC(=O)N1CCCC(c2nc(-c3cccnc3)cc(N(C)c3cccc(F)c3)n2)C1 (centres unmarked),5.00 to 6.00
22,CCC(=O)N1CCCC(c2nc(Nc3cccc(F)c3)cc(C3CCCC3)n2)C1 (centres unmarked),< 5.00
23,CCC(=O)N1CCCC(c2nc(C)cc(Nc3cccc(F)c3)n2)C1 (centres unmarked),< 5.00
